From patent EP2340832A1, “Morphinan-6-one compounds for the treatment or prevention of neurodegenerative diseases” (Universität Innsbruck, priority 2009, dated 2011)
Read-outs that look alike come from different tables or passages of the source.

Legend:
[1] = target: T1, electric eel AChE (EC 3.1.1.7) (Electrophorus electricus, UniProt O42275); experiment: Spectrophotometric assay for AChE inhibitory activity (modified Ellman's method); format: biochemical; details: 96-well microplate, 1% DMSO; read-out: AChE inhibitory activity IC50
T1 construct: purchased Sigma-Aldrich, Germany

δ opioid receptors = target: T2, δ opioid receptors (Rattus norvegicus, UniProt P33533); experiment: Opioid receptor binding assay, [3H][Ile5,6]deltorphin II, rat brain membranes; set-up: species or system Sprague-Dawley rat
T2 construct: Membrane fractions were prepared from Sprague-Dawley rat or guinea pig brains; from tissue; host or cells: Sprague-Dawley rat brain (without cerebella) membranes
Experimental: (§1) Briefly, brains without cerebella were homogenised on ice in 5 volumes of ice-cold 50 mM Tris-HCI buffer (pH 7.4) and diluted in 30 volumes of the same buffer. After centrifugation at 40,000 x g for 20 min at 4°C, the pellets were resuspended in 30 volumes of Tris-HCI buffer and incubated at 37 °C for 30 min (rat brain) or for 10 min (guinea pig brain). The centrifugation step was repeated and the final pellets were resuspended in 5 volumes of 50 mM Tris-HCI buffer (pH 7.4) containing 0.32 M sucrose to give a protein concentration of 4 - 6 mg/ml. Protein concentration was determined by the method of Bradford using bovine serum albumin as standard.
(§2) Binding experiments were performed in 50 mM Tris-HCI buffer (pH 7.4) in a final volume of 1 ml containing 0.3 - 0.5 mg protein and different concentrations of the compounds. […] Guinea pig brain membranes were incubated with [^3H]U69,593 (30 min, 30 °C). Non-specific binding was determined in the presence of 10 µM unlabeled naloxone. […] Inhibition constant (Ki) values were calculated from competition binding curves using GraphPad Prism (San Diego, CA, USA) program. The values are expressed as the mean ± S.E.M of 2-4 independent experiments, each performed in duplicate.
(§3) The morphinan-6-one compounds of the present invention were evaluated in in vitro receptor binding assays for their interaction abilities with µ, δ and k opioid receptors. […] The affinities of the compounds at k opioid receptors were determined by displacement of [^3H]U69,593 using guinea pig brain membranes.

k opioid receptors = target: T3, k opioid receptors (Cavia porcellus, UniProt P41144); experiment: Opioid receptor binding assay, [3H]U69,593, guinea pig brain membranes
T3 construct: Membrane fractions were prepared from Sprague-Dawley rat or guinea pig brains; from tissue; host or cells: guinea pig brain (without cerebella) membranes
Experimental: as §1, §2, §3

δ receptor = target: T4, δ receptor (Rattus norvegicus, UniProt P33533); experiment: [35S]GTPγS functional assay, rat brain membranes, δ receptor; format: biochemical, Sprague-Dawley rat
T4 construct: Membrane fractions were prepared from Sprague-Dawley rat or guinea pig brains; from tissue; host or cells: Sprague-Dawley rat brain (without cerebella) membranes
Experimental: (§4) Membrane fractions were prepared from Sprague-Dawley rat or guinea pig brains as described above. To determine binding of [^35S]GTPyS, rat or guinea pig brain membranes (10 µg of protein) were incubated for 60 min at 30 °C in Tris-EGTA buffer (50 mM Tris-HCl buffer, 3 mM MgCl2, 1 mM EGTA, […], pH 7.4) containing 30 µM GDP, 0.05 nM [^35S]GTPyS and appropriate concentrations of the respective compounds according to the present invention in a final volume of 1 ml. The reaction was terminated by vacuum filtration through Whatman GF/B glass fibre filters. Filters were washed three times with ice-cold 50 mM Tris-HCI buffer (pH 7.4) and the bound radioactivity was measured by liquid scintillation counting (Beckman Coulter™ LS6500). Basal activity was determined by subtracting the non-specific binding (measured in the presence of 100 µM unlabelled GTPyS) from the total binding (measured in the absence of the compound).
(§5) Stimulation produced by the compound is given as percentage of the basal activity (given as 100%). Functional data, EC50 (nM; half maximal effective concentration) and maximal stimulation Emax (% stimulation over basal level; maximal effective concentration), were calculated by using nonlinear regression analysis and sigmoidal curve fitting GraphPad Prism (San Diego, CA, USA) program. The values are expressed as the mean ± S.E.M of at least 3 independent experiments, each performed in triplicate. Statistical analysis was carried out using SPSS software (SPSS Inc., Chicago, lL, USA) and the Student T-test was used to compare different assay conditions. A ρ value < 0.05 was considered statistically significant.

K receptor = target: T5, K receptor (Cavia porcellus, UniProt P41144); format: biochemical, guinea pig
T5 construct: Membrane fractions were prepared from Sprague-Dawley rat or guinea pig brains; from tissue; host or cells: guinea pig brain (without cerebella) membranes

[2] = target: T6, σ receptors labelled by [^3H](+)-pentazocine (σ1) (Cavia porcellus, UniProt Q60492); experiment: Sigma receptor binding assay, [3H](+)-pentazocine; set-up: species or system guinea pig
T6 construct: from tissue; host or cells: guinea pig brain membranes
Experimental: (§6) Filters were washed three times with 5 ml of ice-cold 10 mM Tris-HCI buffer (pH 8). The bound radioactivity was measured by liquid scintillation counting (Beckman Coulter™ LS6500). […] The values are expressed as the mean ± S.E.M of 2 - 4 independent experiments, each performed in duplicate.

[3] = target: σ receptors labelled by [^3H]DTG (σ1 + σ2); experiment: Sigma receptor binding assay, [3H]DTG; details: read-out: IC50 ± SEM [^3H]DTG (σ1 + σ2); guinea pig brain membranes; compounds 1-5 tested up to 10 µM
Experimental: as §6

C57BL/6N female mice [4] = experiment: Open field (locomotor activity); format: in vivo
Description: Each mouse was used only once. […] . […] Thereafter it was replaced by the obturator.
The open field consisted of a transparent plastic box with white floor (41 x 41 x 41 cm) equipped with an automated activity monitoring system (True Scan, Coulbourn Instruments, Allentown, Pennsylvania, USA). The illumination at floor level was 150 lux. Mice were individually placed into the centre of the open field and their behaviours were tracked with the activity monitoring system. The time of locomotor activity, the overall distance travelled by the mice and the fraction of locomotor activity in the center area (center distance and center time) were monitored for 10 min. The arena was thoroughly cleaned with wet paper towels and dried at the end of each test.
Statistical analysis: All data from behavioural studies are shown as mean ± SEM. Statistical analysis was performed using the analysis of variance (ANOVA), followed by post hoc multiple comparisons Tukey-Kramer test, except comparison of alternation rates with the theoretical value of chance (defined as 50%) which was evaluated by Wilcoxon signed rank test. All statistical analyses were carried out by using the Graphpad Prism Program, version 4.0, Graphpad software, Inc.

[5] = test system: extracellular ACh concentration in the nucleus accumbens
C57BL/6N female mice [6] = experiment: Object recognition task
C57BL/6N female mice [7] = experiment: T-maze continuous alternation
µ opioid receptor [8] = target: T7, µ opioid receptor (Rattus norvegicus, UniProt P33535); experiment: Opioid receptor binding assay, [3H]DAMGO, rat brain membranes; set-up: Membrane fractions were prepared from Sprague-Dawley rat or guinea pig brains; from tissue; host or cells: Sprague-Dawley rat brain (without cerebella) membranes; species or system Sprague-Dawley rat
Experimental: as §1, §2, §3

µ opioid receptor [9] = target: T7, µ opioid receptor; experiment: [35S]GTPγS functional assay, rat brain membranes, µ receptor; format: biochemical, Sprague-Dawley rat; set-up: Membrane fractions were prepared from Sprague-Dawley rat or guinea pig brains; from tissue; host or cells: Sprague-Dawley rat brain (without cerebella) membranes; details: rat brain membranes
Experimental: as §4, §5

µ opioid receptor [10] = target: T7, µ opioid receptor; experiment: as above; format: biochemical, Sprague-Dawley rat; set-up: from tissue; host or cells: Sprague-Dawley rat brain (without cerebella) membranes; details: read-out: Emax (% of basal activity)
Experimental: as §4
Stimulation produced by the compound is given as percentage of the basal activity (given as 100%). Functional data, EC50 (nM; half maximal effective concentration) and maximal stimulation Emax (% stimulation over basal level; maximal effective concentration), were calculated by using nonlinear regression analysis and sigmoidal curve fitting GraphPad Prism (San Diego, CA, USA) program. […]

[11] = scopolamine 0.033 µmol, compound 0.1 µmol i.c.v.

T7 sequence (P33535 whole entry): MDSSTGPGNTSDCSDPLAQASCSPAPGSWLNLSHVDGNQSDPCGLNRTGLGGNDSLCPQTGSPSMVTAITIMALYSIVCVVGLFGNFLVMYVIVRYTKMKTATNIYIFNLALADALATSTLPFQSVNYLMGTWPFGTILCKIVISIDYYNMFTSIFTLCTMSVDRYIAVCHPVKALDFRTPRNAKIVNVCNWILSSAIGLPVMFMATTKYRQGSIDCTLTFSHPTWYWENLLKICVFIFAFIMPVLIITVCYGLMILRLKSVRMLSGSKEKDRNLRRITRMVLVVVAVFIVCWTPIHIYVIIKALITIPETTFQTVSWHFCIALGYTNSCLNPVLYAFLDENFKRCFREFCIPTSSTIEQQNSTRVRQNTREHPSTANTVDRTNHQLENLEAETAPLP
T5 sequence (P41144 whole entry): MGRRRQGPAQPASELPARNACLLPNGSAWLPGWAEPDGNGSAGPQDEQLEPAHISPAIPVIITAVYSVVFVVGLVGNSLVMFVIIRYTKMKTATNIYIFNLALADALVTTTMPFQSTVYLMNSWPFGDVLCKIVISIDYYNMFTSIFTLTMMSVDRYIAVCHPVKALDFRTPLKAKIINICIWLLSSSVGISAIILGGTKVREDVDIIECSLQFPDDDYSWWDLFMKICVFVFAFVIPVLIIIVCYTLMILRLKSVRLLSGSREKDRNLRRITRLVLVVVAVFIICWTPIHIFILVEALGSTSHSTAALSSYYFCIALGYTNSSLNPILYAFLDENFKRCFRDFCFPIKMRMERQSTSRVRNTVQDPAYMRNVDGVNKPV
T4 sequence (P33533 whole entry): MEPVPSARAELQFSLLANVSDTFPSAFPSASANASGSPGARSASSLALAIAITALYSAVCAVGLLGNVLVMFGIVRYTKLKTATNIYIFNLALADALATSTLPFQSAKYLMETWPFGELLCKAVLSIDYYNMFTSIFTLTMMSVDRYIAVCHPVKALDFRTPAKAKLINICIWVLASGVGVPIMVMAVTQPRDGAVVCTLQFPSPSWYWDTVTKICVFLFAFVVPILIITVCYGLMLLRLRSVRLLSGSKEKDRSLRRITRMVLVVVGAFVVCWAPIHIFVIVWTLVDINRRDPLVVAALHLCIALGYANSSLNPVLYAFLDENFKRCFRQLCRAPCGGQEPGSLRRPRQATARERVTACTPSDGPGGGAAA
T6 sequence (Q60492 whole entry): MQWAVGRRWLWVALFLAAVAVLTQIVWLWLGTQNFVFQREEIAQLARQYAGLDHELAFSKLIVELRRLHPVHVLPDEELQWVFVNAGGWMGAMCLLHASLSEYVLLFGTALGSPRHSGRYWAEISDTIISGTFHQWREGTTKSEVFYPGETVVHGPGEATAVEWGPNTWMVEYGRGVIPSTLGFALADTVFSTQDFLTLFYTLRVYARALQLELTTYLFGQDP
T2 sequence (P33533 whole entry): as the sequence (P33533 whole entry) above
T1 sequence (O42275 24-633): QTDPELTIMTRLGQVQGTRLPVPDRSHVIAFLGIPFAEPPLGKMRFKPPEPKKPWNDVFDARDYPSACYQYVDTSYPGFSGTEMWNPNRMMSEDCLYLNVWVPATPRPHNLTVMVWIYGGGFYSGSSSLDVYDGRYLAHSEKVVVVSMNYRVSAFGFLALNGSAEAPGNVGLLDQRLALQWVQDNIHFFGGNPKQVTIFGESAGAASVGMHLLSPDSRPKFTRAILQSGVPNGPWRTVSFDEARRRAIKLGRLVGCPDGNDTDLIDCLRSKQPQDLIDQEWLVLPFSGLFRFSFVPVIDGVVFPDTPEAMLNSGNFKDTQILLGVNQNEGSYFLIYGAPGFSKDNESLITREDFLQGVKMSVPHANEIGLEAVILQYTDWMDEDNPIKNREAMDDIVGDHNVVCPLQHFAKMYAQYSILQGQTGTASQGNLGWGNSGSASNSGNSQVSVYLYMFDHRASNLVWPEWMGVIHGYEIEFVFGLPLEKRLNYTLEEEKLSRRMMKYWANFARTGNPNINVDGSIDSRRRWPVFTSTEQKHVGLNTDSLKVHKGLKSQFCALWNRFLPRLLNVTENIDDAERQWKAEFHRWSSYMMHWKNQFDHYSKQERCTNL
T3 sequence (P41144 whole entry): as the sequence (P41144 whole entry) above

C=CCN1CC[C@]23CC(=O)CC[C@@]2(OC)[C@H]1Cc1cccc(OC)c13 [Compound 5, 4,14-dimethoxy-N-allyl-morphinan-6-one]
IC50 [1]: 81900 nM | Ki (δ opioid receptors): 1250 nM | Ki (k opioid receptors): 328 nM | [35S]GTPγS binding on co-incubation with naltrindole versus antagonist alone (δ receptor; 10 µM each): did not produce any significant increase | effect on [35S]GTPγS binding stimulated by SNC 80 (δ receptor; compound 10 µM, SNC 80 10 µM): did not cause any significant changes | effect on [35S]GTPγS binding stimulated by U69,593 (K receptor): no significant effect | [35S]GTPγS binding on co-incubation with Nor-BNI versus antagonist alone (K receptor; 10 µM each, guinea pig brain membranes): did not produce any significant increase | [35S]GTPγS binding in the presence of the compound alone (K receptor; guinea pig brain membranes, compared with U69,593): no increase | IC50 [2]: > 10000 nM | IC50 [3]: > 10000 nM | general locomotion in the open field (move distance, move time) (C57BL/6N female mice [4]; 0.1 µmol i.c.v., 10 min): did not influence | fraction of locomotor activity in the central zone (C57BL/6N female mice [4]; dose not given): did not influence | effect on ACh in the superfusate (in words) ([5]; 0.5 µmol i.c.v.): did not increase brain ACh | effect on ACh in the superfusate (in words) ([5]; 1 µmol i.c.v.): short peak increase | 0AUC120 min (% increase x min) Mean ± SEM ([5]; Dose 1 µmol i.c.v., 0 to 120 min): 158 ± 111 % increase x min | Increase in ACh release (Peak increase as % of basal output) ([5]; Dose 1 µmol i.c.v., nucleus accumbens): 51 ± 43% | object recognition (memory) (C57BL/6N female mice [6]; normal mice, 0.1 µmol i.c.v.): increased the exploration ratio | effect on scopolamine-induced impairment of object recognition (C57BL/6N female mice [6]; scopolamine-pretreated mice, dose not given): ineffective | spontaneous alternation rate (C57BL/6N female mice [7]; normal mice, 0.1 µmol i.c.v.): did not influence alternation | effect on scopolamine-enhanced running time (C57BL/6N female mice [7]; [11]): further increased | effect on scopolamine-impaired alternation (C57BL/6N female mice [7]; [11]): had no effect | Ki (µ opioid receptor [8]): 67.2 nM | binding to opioid receptor µ (in words) (µ opioid receptor [8]): some µ opioid receptor affinity | selectivity among opioid receptor types (µ opioid receptor [8]; from binding, Table 3): moderate selectivity for the µ type | [35S]GTPγS binding on co-incubation with cyprodime versus antagonist alone (µ opioid receptor [9]; 10 µM each): did not produce any significant increase | effect on [35S]GTPγS binding stimulated by DAMGO (µ opioid receptor [9]; compound 10 µM, DAMGO 10 µM): significantly decreased | [35S]GTPγS binding in the presence of the compound alone (µ opioid receptor [9]; compared with DAMGO): no increase

C[C@@H](NC(=O)[C@@H](N)Cc1ccc(O)cc1)C(=O)NCC(=O)N(C)[C@@H](Cc1ccccc1)C(=O)NCCO [DAMGO, [D-Ala^2, Me-Phe ^4, Gly-ol^5]enkephalin]
Emax (µ opioid receptor [10]): 179 ± 5%
